According to paper PMC6263361 (Molecules, 2011):
Like-named read-outs stand apart in the source and are kept apart here.

Tests used:
GST-E2F-4 = biological target: T1, GST-E2F-4 (Homo sapiens, UniProt Q16254); experiment: SPR interaction analysis with immobilized recombinant GST-E2F-4; type: binding; settings: for affinity for E2F-4, fold weaker than that of etoposide: relative to etoposide
T1 construct: The 1239-bp cDNA fragment of E2F-4 was amplified from I.M.A.G.E cDNA clone; made in house; host or cells: E. coli BL21(DE3)pLysS
Excerpt: (§1) The gene encoding E2F-4 protein was engineered into an E. coli expression system as a GST fusion protein (GST-E2F-4) and purified by affinity interaction using glutathione Sepharose beads. The GST-E2F-4 was immobilized on a CM5 sensor chip using the same procedure as described for the synthetic ETBP.
The 1239-bp cDNA fragment of E2F-4 was amplified from I.M.A.G.E cDNA clone (clone ID CL0B005ZB12, Invitrogen) by PCR with the primers 5’-[…]-3’ (up) and 5’-[…]-3’ (down) and subcloned into pGEM-T vector (Promega). Following purification and digestion with EcoRI and XhoI, the cDNA fragment was subcloned into the expression vector pET28a(+) (Novagen). The construct was transformed into E. coli BL21(DE3)pLysS (Novagen). Heterologous gene expression was induced by addition of 0.1 mM isopropyl β-D-1-thiogaractopyranoside (IPTG). The culture was continued at 37 °C with vigorous shaking for 1 h. The cells were then harvested and suspended in binding buffer (0.5 M NaCl, 5 mM 2-mercaptoethanol in 50 mM sodium phosphate, pH 7.5). Following sonication and centrifugation the soluble fraction was obtained and purified using the FPLC instrument and GSTrap column (1 mL, GE Healthcare) and then subjected to kinetic analysis by SPR. The purified GST-E2F-4 in resulting fraction was detected by a SDS-PAGE followed by CBB staining or Western blotting using rabbit anti-GST (primary) and anti-rabbit IgG-AP conjugate (secondary) antibodies (Sigma-Aldrich) with BCIP/NBT solution.
(§2) Analysis of binding between etopside and synthetic ETBP or recombinant GST-E2F-4 was performed with a surface plasmon resonance (SPR) biosensor (Biacore®3000, GE Healthcare). The synthetic ETBP or protein dissolved in each buffer (ETBP16: 10 mM acetate buffer, pH 4.0−10% DMSO; ETBP10, HG102: 10 mM carbonate buffer, pH 8.5; protein: 10 mM acetate buffer, pH 4.0) was injected over a CM5 sensor chip at 10 µL/min and captured on the carboxymethyl dextran matrix via an amine coupling reaction. The surface was activated by injecting a solution containing 200 mM EDC and 50 mM NHS for 14 min. The protein or peptide was injected and the surface was then blocked by injecting 1 M ethanolamine at pH 8.5 for 14 min. […] BIAevaluation 3.2 software (GE Healthcare) was used to determine the kinetic parameters.

[1] = test system: control peptide HG102 (SGVMLGDPN); experiment: SPR interaction analysis between etoposide and control peptide HG102; type: binding; settings: etoposide 3.2-80 µM injected
Experimental: Synthetic ETBP16 or ETBP10 was immobilized on a CM5 censor chip by an amine coupling reaction. […] By contrast, no response was observed against a control peptide HG102 ([…]).
Analysis of binding between etopside and synthetic ETBP or recombinant GST-E2F-4 was performed with a surface plasmon resonance (SPR) biosensor (Biacore®3000, GE Healthcare). The synthetic ETBP or protein dissolved in each buffer (ETBP16: 10 mM acetate buffer, pH 4.0−10% DMSO; ETBP10, HG102: 10 mM carbonate buffer, pH 8.5; protein: 10 mM acetate buffer, pH 4.0) was injected over a CM5 sensor chip at 10 µL/min and captured on the carboxymethyl dextran matrix via an amine coupling reaction. The surface was activated by injecting a solution containing 200 mM EDC and 50 mM NHS for 14 min. The protein or peptide was injected and the surface was then blocked by injecting 1 M ethanolamine at pH 8.5 for 14 min. This reaction immobilized 1279 resonance units (RU) of ETBP16, 3400 RU of ETBP10, 350 RU of HG102, 11421 RU of GST-E2F-4, 4388 RU of GST, and 7500 RU of top II (usb). […] BIAevaluation 3.2 software (GE Healthcare) was used to determine the kinetic parameters.

GST = GST (Schistosoma japonicum, UniProt P08515); experiment: SPR interaction analysis with immobilized GST tag alone; type: binding; settings: etoposide 2.5-100 µM injected
Experimental: as §1, §2

E2F-4/DP1 = biological target: T2, E2F-4/DP1 (Homo sapiens, UniProt Q16254); experiment: Luciferase reporter gene assay, E2F-4/DP1 expressing CHO-K1 cells; type: cell-based; settings: 15 h incubation, read-out: IC50 of reporter gene transcription, E2F-4/DP1
T2 construct: expressed in transfected cells; host or cells: CHO-K1
Excerpt: (§3) E2F-4 functions as a transcription factor, forming a heterodimeric complex with DP via the DP binding domain (G86-I181) (Figure 9).
(§4) The vectors (pCMV-E2F-4, pCMV-DP1, pCMV-DP2) for the luciferase reporter gene assay were kindly provided by Dr. Junji Magae (Institute of Research and Innovation (IRI), Kashiwa, Chiba, Japan) The reporter gene plasmid (pGL3-GC box) was constructed by insertion of double stranded DNA with XhoI and HindIII site, which was generated by an annealing of 60 pmol of oligonucleotides 5’-[…]-3’ and 5’-[…]-3’ into pGL3 vector (Promega). Transfection was then performed using Lipofectamine 2000 (Invitrogen) in a 96-well format according to the manufacturer’s instructions (Invitrogen).

E2F-4/DP2 = biological target: T3, E2F-4/DP2 (Homo sapiens, UniProt Q16254); experiment: Luciferase reporter gene assay, E2F-4/DP2 expressing CHO-K1 cells; type: cell-based; settings: 15 h incubation, read-out: IC50 of reporter gene transcription, E2F-4/DP2
T3 construct: expressed in transfected cells; host or cells: CHO-K1
Excerpt: as §3, §4

CHO-K1 cells = experiment: MTS assay of cell proliferation; type: cell-based; settings: concentrations used in the reporter assay; data not shown
[2] = SPR, read-out: KD between GST-E2F-4 and each compound

T1 sequence (Q16254 whole entry, the tested form may be a part): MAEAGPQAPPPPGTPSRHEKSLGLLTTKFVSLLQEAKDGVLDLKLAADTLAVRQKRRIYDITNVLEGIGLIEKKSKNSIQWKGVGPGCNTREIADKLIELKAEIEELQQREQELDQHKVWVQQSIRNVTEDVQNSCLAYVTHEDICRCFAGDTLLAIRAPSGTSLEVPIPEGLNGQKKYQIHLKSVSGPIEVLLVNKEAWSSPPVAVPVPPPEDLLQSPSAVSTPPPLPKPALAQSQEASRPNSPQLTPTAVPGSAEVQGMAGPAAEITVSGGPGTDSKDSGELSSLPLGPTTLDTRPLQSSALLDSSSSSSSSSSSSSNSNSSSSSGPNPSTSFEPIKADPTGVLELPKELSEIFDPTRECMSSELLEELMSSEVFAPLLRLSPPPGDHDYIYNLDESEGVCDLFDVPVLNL
T3 sequence (Q16254 whole entry, species assumed): as the sequence (Q16254 whole entry, the tested form may be a part) above
T2 sequence (Q16254 whole entry, species assumed): as the sequence (Q16254 whole entry, the tested form may be a part) above
GST, sequence (P08515 whole entry): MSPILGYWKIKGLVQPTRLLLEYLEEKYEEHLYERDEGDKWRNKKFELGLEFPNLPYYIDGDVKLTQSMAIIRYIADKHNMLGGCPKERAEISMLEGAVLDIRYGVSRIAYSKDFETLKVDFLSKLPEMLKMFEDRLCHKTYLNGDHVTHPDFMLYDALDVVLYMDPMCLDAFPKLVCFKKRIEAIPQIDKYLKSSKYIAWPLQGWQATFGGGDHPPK

## COc1cc(C(=O)O)cc(OC)c1O [Syringic acid]
GST-E2F-4; in the concentration range tested
  SPR response against GST-E2F-4: no response

## COc1cc([C@@H]2c3cc4c(cc3[C@@H](O[C@@H]3O[C@@H]5CO[C@@H](c6cccs6)O[C@H]5[C@H](O)[C@H]3O)[C@H]3COC(=O)[C@H]23)OCO4)cc(OC)c1O [Teniposide, teniposide]
GST-E2F-4; SPR
  affinity for E2F-4, fold weaker than that of etoposide: nine
GST-E2F-4; [2]
  Kd: 654 µM

## COc1cc([C@@H]2c3cc4c(cc3[C@H](O)[C@H]3COC(=O)[C@H]23)OCO4)cc(OC)c1OC [Podophyllotoxin, podophyllotoxin]
GST-E2F-4
  Kd: 308 µM
GST-E2F-4; SPR
  affinity for E2F-4, fold weaker than that of etoposide: approximately four

## COc1cc([C@@H]2c3cc4c(cc3[C@@H](O[C@@H]3O[C@@H]5CO[C@@H](C)O[C@H]5[C@H](O)[C@H]3O)[C@H]3COC(=O)[C@H]23)OCO4)cc(OC)c1O [Etoposide]
[1]
  SPR response against control peptide HG102: no response
GST-E2F-4; [2]
  Kd: 75 µM
GST
  SPR response against GST tag alone: did not show any response
E2F-4/DP1
  IC50: 1.56 µM
E2F-4/DP2
  IC50: 1.16 µM
CHO-K1 cells
  effect in terms of cell growth in MTS assay: no effect
